Data: the supplement of paper PMC8497498

How the values were obtained:
[1] = tested on: primary human hepatocytes; assay: CC20 hepatic nuclei (20% reduction); higher = less toxic
Method in brief: (§1)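 Primary human hepatocytes were infected with P. vivax sporozoites from patient-isolate-fed mosquitoes. Compounds were added as 40 nL pin transfers from 1000× DMSO plates, at 8 points (10 uM[…]) or 12 points in duplicate (50 uM–280 pM). Fixed, immunostained wells were imaged by high-content imaging for schizont growth area, hypnozoite count and hepatic nuclei, normalised to DMSO and positive-control wells. Potency, maximum inhibition and nuclei-loss cytotoxicity came from CDD Vault curves of the highest-quality run, with toxic bell-shaped points removed.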

[2] = tested on: Plasmodium falciparum 3D7 asexual blood stage; assay: EC50 asexual blood stage growth; conditions: serum: 0.5% AlbuMAX
Method in brief: (§2)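 Reference compounds were tested against asexual blood-stage P. cynomolgi and P. falciparum in SYBR Green proliferation assays. For P. cynomolgi, stocks were diluted threefold in DMSO to ten points and dispensed acoustically at 500-fold dilution (top dose 10 µM), with vehicle and positive-control wells. Media held 0.5% AlbuMAX or 20% macaque serum. P. falciparum was assayed over 72 h with AlbuMAX. EC50 values are geometric means across independent experiments.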

[3] = tested on: Plasmodium cynomolgi Berok K4 asexual blood stage; assay: EC50 asexual blood stage growth
Method in brief: as §2

[4] = tested on: Plasmodium vivax liver stage (primary human hepatocyte culture)
Method in brief: as §1

[5] = tested on: Plasmodium vivax liver stage (primary human hepatocyte culture); assay: maximum inhibition of schizont net growth area; higher = more active
Method in brief: as §1

[6] = P. vivax isolate: Pv992, hepatocyte lot: BGW, assay mode: Prophylactic, 6-day
[7] = serum: 20% M. fascicularis serum
[8] = P. vivax isolate: Pv360, hepatocyte lot: UBV, assay mode: Prophylactic, 6-day
[9] = P. vivax isolate: Pv914, hepatocyte lot: BGW, assay mode: Prophylactic, 6-day
[10] = P. vivax isolate: IVS16-38, hepatocyte lot: PDC, assay mode: Prophylactic, 6-day
[11] = P. vivax isolate: Pv923, hepatocyte lot: BGW, assay mode: Radical Cure, 8-day (treatment from day 5 post-infection)
[12] = P. vivax isolate: Pv360, hepatocyte lot: UBV, assay mode: Radical Cure, 8-day (treatment from day 5 post-infection)
[13] = P. vivax isolate: Pv796, hepatocyte lot: BGW, assay mode: Radical Cure, 8-day (treatment from day 5 post-infection)
[14] = P. vivax isolate: Pv557, hepatocyte lot: UBV, assay mode: Radical Cure, 8-day (treatment from day 5 post-infection)

Row | Compound | EC50 asexual blood stage growth [2] [µM] | EC50 asexual blood stage growth ([3]; serum: 0.5% AlbuMAX) [µM] | EC50 asexual blood stage growth [3, 7] [µM] | CC20 hepatic nuclei [1, 9] [µM] | EC50 hypnozoite quantity [4, 9] [µM] | EC50 schizont net growth area [4, 9] [µM] | maximum inhibition [5, 9] [%] | further results
1 | CCN(CC)Cc1cc(Nc2ccnc3cc(Cl)ccc23)ccc1O [Amodiaquine] | 0.006 | 0.0198 | 0.0081 |  |  |  |  | CC20 hepatic nuclei [1, 6]: > 10 µM; EC50 hypnozoite quantity [4, 6]: > 10 µM; EC50 schizont net growth area [4, 6]: 0.0141 µM; maximum inhibition [5, 6]: 87.2%
2 | COC1OC2OC3(C)CCC4C(C)CCC(C1C)C24OO3 (configuration not stated) [Artemether] | 0.0575 | 0.0068 | 0.0065 |  |  |  |  | CC20 hepatic nuclei [1, 8]: > 10 µM; EC50 hypnozoite quantity [4, 8]: > 10 µM; maximum inhibition [5, 8]: 60.4%
3 | CCC1OC(=O)C(C)C(OC2CC(C)(OC)C(O)C(C)O2)C(C)C(OC2OC(C)CC(N(C)C)C2O)C(C)(O)CC(C)CN(C)C(C)C(O)C1(C)O (configuration not stated) [Azithromycin] | > 10 | > 10 | > 10 | > 10 | > 10 | > 0.37 | 63.3 | 
4 | CC(C)N=C(N)N=C(N)Nc1ccc(Cl)c(Cl)c1 [Chlorproguanil] | 5.34 | 8.45 | > 10 | > 10 | > 10 | > 1.11 | 98.1 | 
5 | CCCCCCC[C@@H]1CN[C@H](C(=O)NC(C(C)Cl)C2O[C@H](SC)[C@H](O)[C@@H](O)[C@H]2O)C1 (stereo partly drawn) [Cis-Mirincamycin] | > 10 | 7.99 | > 10 | > 10 | > 10 |  | 69.3 | 
6 | Cc1cc(Nc2ccc(S(F)(F)(F)(F)F)cc2)n2nc(C(C)(F)F)nc2n1 [DSM265] | 0.011 | 0.0064 | 0.0625 |  |  |  |  | CC20 hepatic nuclei [1, 10]: > 3.07 µM; CC20 hepatic nuclei [1, 11]: > 10 µM; EC50 hypnozoite quantity [4, 10]: > 3.07 µM; EC50 schizont net growth area [4, 10]: 0.126 µM; EC50 hypnozoite quantity [4, 11]: > 10 µM; EC50 schizont net growth area [4, 11]: > 1.11 µM; maximum inhibition [5, 10]: 100%; maximum inhibition [5, 11]: 69.4%
7 | COc1cc2[nH]c(C)c(-c3ccc(Oc4ccc(OC(F)(F)F)cc4)cc3)c(=O)c2cc1Cl [ELQ-300] | 0.0471 | 0.042 | 0.0033 | > 10 | > 1.11 | 0.0576 | 97.9 | 
8 | CCNCc1cc(Nc2ccnc3cc(Cl)ccc23)ccc1O [N-Desethylamodiaquine] | 0.056 | 0.0222 | 0.0115 | > 10 | > 10 | > 3.33 | 74.5 | 
9 | COc1cc(NC(C)CCCN)c2nccc(C)c2c1Oc1ccc(Cl)c(Cl)c1 (configuration not stated) [NPC-1161B] | 2.86 | 2.76 | 8.2 | > 10 | > 10 | > 0.37 | 91.9 | 
10 | CCc1nc(N)nc(N)c1OCCCOc1ccccc1CCC(=O)O [P218] | 0.002 | 0.0007 | 0.0017 | > 10 | > 10 | 0.0511 | 101 | 
11 | CCN(CC)CCCC(C)Nc1cc(OC)cc2cccnc12 (configuration not stated) [Pamaquine] | 3.95 | 0.325 | 0.187 |  |  |  |  | CC20 hepatic nuclei [1, 6]: > 10 µM; EC50 hypnozoite quantity [4, 6]: > 3.33 µM; EC50 schizont net growth area [4, 6]: > 10 µM; maximum inhibition [5, 6]: 61%
12 | COc1ccc2nc3cc(Cl)ccc3c(Nc3cc(CN4CCCC4)c(O)c(CN4CCCC4)c3)c2n1 [Pyronaridine] | 0.005 | 0.0035 | 0.004 | 7.91 | > 3.33 | > 3.33 | 99.4 | 
13 | Clc1ccc2c(N[C@H]3CCCC[C@@H]3Nc3ccnc4cc(Cl)ccc34)ccnc2c1 [Ro 47-7737] | 0.002 | 0.0042 | 0.0036 | > 3.33 | > 3.33 | > 3.33 | 99 | CC20 hepatic nuclei [1, 12]: > 10 µM; EC50 hypnozoite quantity [4, 12]: > 10 µM; EC50 schizont net growth area [4, 12]: > 3.33 µM; maximum inhibition [5, 12]: 70.6%
14 | N#Cc1cc(NC(=O)C2c3ccccc3C(=O)N(CC(F)(F)F)C2c2cccnc2)ccc1F (configuration not stated) [SJ733] | 0.106 | 0.538 | 0.293 |  |  |  |  | CC20 hepatic nuclei [1, 13]: > 50 µM; EC50 hypnozoite quantity [4, 13]: > 50 µM; maximum inhibition [5, 13]: 56.8%
15 | CN(C)[C@@H]1C(O)=C(C(N)=O)C(=O)[C@@]2(O)C(O)=C3C(=O)c4c(O)cccc4[C@@](C)(O)[C@H]3C[C@@H]12 [Tetracycline] | > 10 | > 10 | > 10 | > 10 | > 10 |  | 56.7 | 
16 | C=C(NC(=O)C(=C)NC(=O)c1csc(C2=NC3c4csc(n4)C4NC(=O)c5csc(n5)C(C(C)(O)C(C)O)NC(=O)C5CSC(=N5)C(=CC)NC(=O)C(C(C)O)NC(=O)c5csc(n5)C3(CC2)NC(=O)C(C)NC(=O)C(=C)NC(=O)C(C)NC(=O)C(C(C)CC)NC2C=Cc3c(C(C)O)cc(nc3C2O)C(=O)OC4C)n1)C(N)=O (configuration not stated) [Thiostrepton] | > 10 | 3.93 | 9.13 | > 3.33 | 4.04 | 2.39 | 99.1 | CC20 hepatic nuclei [1, 12]: > 10 µM; EC50 hypnozoite quantity [4, 12]: > 10 µM; EC50 schizont net growth area [4, 12]: > 3.33 µM; maximum inhibition [5, 12]: 80.2%
17 | CCCCCCC[C@H]1CN[C@H](C(=O)NC(C(C)Cl)C2O[C@H](SC)[C@H](O)[C@@H](O)[C@H]2O)C1 (stereo partly drawn) [Trans-Mirincamycin] | > 10 | > 10 | > 10 | > 10 | > 10 |  | 72.5 | 
18 | Nc1ncc(-c2ccc(C(=O)N3CCNCC3)cc2)nc1-c1ccc(C(F)(F)F)cc1 [UCT943] | 0.318 | 0.0344 | 0.0206 | > 10 | 0.00427 | 0.00175 | 100 | CC20 hepatic nuclei [1, 14]: > 10 µM; EC50 hypnozoite quantity [4, 14]: > 10 µM; EC50 schizont net growth area [4, 14]: 0.00238 µM; maximum inhibition [5, 14]: 101%
